Drawing on patent US5530126A, “Process for the preparation of substituted 6-(pyrazol-3yl)-1,4-benzoxazin-3-ones” (Monsanto Company, priority 1994, dated 1996), this text covers inhibition for six molecules.

SMILES strings stand for the structures.

What all share (assay type): in vivo
Test [1] concerns Annual bluegrass. The test can be described thus: Pre-emergence herbicide test. Particulars: read-out: % plant inhibition (Anbg); for inhibition at 11210 g/ha: 11.21 kg/ha; for inhibition at 1120 g/ha: 1.12 kg/ha. On the procedure:
(§1) The tests for pre-emergence herbicide activity are conducted as follows:
(§2) Topsoil is placed in an aluminum pan and compacted to a depth of 0.95 to 1.27 cm from the top of the pan. On the top of the soil is placed a predetermined number of seeds of each of several monocotyledonous and dicotyledonous annual plant species and/or vegetative propagules of various perennial plant species. A known amount of the active ingredient dissolved or suspended in an organic solvent, e.g., acetone, or water as carrier is then applied directly to the seed bed, which is then covered with a layer of untreated topsoil to level fill the pan. After treatment, the pans are moved to a greenhouse bench where they are watered from below as needed to give adequate moisture for germination and growth.
(§3) Approximately 10-14 days (usually 11 days) after seeding and treating, the pans are observed and the results (% inhibition) are recorded.
(§4) Tables 7 and 7A below summarize the results of the pre-emergence herbicidal activity tests of compounds of this invention in weeds. The herbicidal rating shown in these tables is the percent inhibition of each plant species. The plant species usually regarded as weeds which are utilized in one set of tests, the data for which are shown in the tables, are identified by letter headings above the columns in accordance with the following legend: […]

Test [2] relates to Barnyardgrass. Nature of the test: Pre-emergence herbicide test. Particulars: Echinochloa crus-galli, read-out: % plant inhibition (Bygr); for inhibition at 11210 g/ha: 11.21 kg/ha; for inhibition at 1120 g/ha: 1.12 kg/ha. On the procedure:
as §1, §2, §3, §4

Test [3] has as its system Cocklebur. The test can be described thus: Pre-emergence herbicide test. The following applies: Xanthium strumarium, read-out: % plant inhibition (Cobu); for inhibition at 11210 g/ha: 11.21 kg/ha; for inhibition at 1120 g/ha: 1.12 kg/ha. On the procedure: as §1, §2, §3, §4
Test [4] concerns Downy Brome. Nature of the test: Pre-emergence herbicide test. Particulars: Bromus tectorum, read-out: % plant inhibition (Dobr); for inhibition at 11210 g/ha: 11.21 kg/ha; for inhibition at 1120 g/ha: 1.12 kg/ha. On the procedure: as §1, §2, §3, §4
For test [5], the system named is Indian Mustard. Nature of the test: Pre-emergence herbicide test. The following applies: Brassica juncea, read-out: % plant inhibition (Inmu); for inhibition at 11210 g/ha: 11.21 kg/ha; for inhibition at 1120 g/ha: 1.12 kg/ha. On the procedure: as §1, §2, §3, §4
Test [6] relates to Morningglory. The test can be described thus: Pre-emergence herbicide test. Particulars: Ipomoea, read-out: % plant inhibition (Mogl); for inhibition at 11210 g/ha: 11.21 kg/ha; for inhibition at 1120 g/ha: 1.12 kg/ha. On the procedure: as §1, §2, §3, §4
Test [7] concerns Seedling johnsongrass. Nature of the test: Pre-emergence herbicide test. Particulars: Sorghum halepense, read-out: % plant inhibition (Sejg); for inhibition at 11210 g/ha: 11.21 kg/ha; for inhibition at 1120 g/ha: 1.12 kg/ha. On the procedure:
as §1, §2, §3, §4

Test [8] relates to Velvetleaf. The test can be described thus: Pre-emergence herbicide test. Particulars: Abutilon theophrasti, read-out: % plant inhibition (Vele); for inhibition at 11210 g/ha: 11.21 kg/ha; for inhibition at 1120 g/ha: 1.12 kg/ha. On the procedure:
as §1, §2, §3, §4

Test [9] relates to Wild buckwheat. The test can be described thus: Pre-emergence herbicide test. The following applies: Fallopia convolvulus, read-out: % plant inhibition (Wibw); for inhibition at 11210 g/ha: 11.21 kg/ha; for inhibition at 1120 g/ha: 1.12 kg/ha. On the procedure:
as §1, §2, §3, §4

In test [10] the test system is Yellow nutsedge. The test can be described thus: Pre-emergence herbicide test. The following applies: Cyperus, read-out: % plant inhibition (Yens); for inhibition at 11210 g/ha: 11.21 kg/ha; for inhibition at 1120 g/ha: 1.12 kg/ha. On the procedure: as §1, §2, §3, §4
For test [11], the system named is Annual bluegrass. The test can be described thus: Post-emergence herbicide test. Particulars: read-out: % plant inhibition (Anbg); for inhibition at 11210 g/ha: 11.21 kg/ha; for inhibition at 1120 g/ha: 1.12 kg/ha. From the text:
(§5) Topsoil is placed in aluminum pans having holes in the bottom and compacted to a depth of 0.95 to 1.27 cm from the top of the pan. A predetermined number of seeds of each of several dicotyledonous and monocotyledonous annual plant species and/or vegetative propagules for the perennial plant species are placed on the soil and pressed into the soil surface. The seeds and/or vegetative propagules are covered with soil and leveled. The pans are then placed on a bench in the greenhouse and watered from below as needed. After the plants reach the desired age (two to three weeks), each pan, is removed individually to a spraying chamber and sprayed by means of an atomizer, operating at a spray pressure of 170.3 kPa (10 psig) at the application rates noted. In the spray solution is an amount of an emulsifying agent mixture to give a spray solution or suspension which contains about 0.4% by volume of the emulsifier. The spray solution or suspension contains a sufficient amount of the candidate chemical in order to give application rates of the active ingredient corresponding to those shown in Tables 8 and 8A, while applying a total amount of solution or suspension equivalent to 1870 L/Ha (200 gallons/acre). The pans were returned to the greenhouse and watered as before and the injury to the plants as compared to the control is observed at approximately 10-14 days (usually 11 days) and in some instances observed again at 24-28 days (usually 25 days) after spraying. The post-emergent herbicidal activity shown in these tables is the percent inhibition of each plant species.

Test [12] relates to Barnyardgrass. The test can be described thus: Post-emergence herbicide test. Particulars: Echinochloa crus-galli, read-out: % plant inhibition (Bygr); for inhibition at 11210 g/ha: 11.21 kg/ha; for inhibition at 1120 g/ha: 1.12 kg/ha.
Source text: as §5

The subject of test [13] is Cocklebur. Nature of the test: Post-emergence herbicide test. Particulars: Xanthium strumarium, read-out: % plant inhibition (Cobu); for inhibition at 11210 g/ha: 11.21 kg/ha; for inhibition at 1120 g/ha: 1.12 kg/ha.
Source text: as §5

Test [14] deals with Downy Brome. Nature of the test: Post-emergence herbicide test. The following applies: Bromus tectorum, read-out: % plant inhibition (Dobr); for inhibition at 11210 g/ha: 11.21 kg/ha; for inhibition at 1120 g/ha: 1.12 kg/ha.
Source text: as §5

In test [15] the test system is Indian Mustard. The test can be described thus: Post-emergence herbicide test. Particulars: Brassica juncea, read-out: % plant inhibition (Inmu); for inhibition at 11210 g/ha: 11.21 kg/ha; for inhibition at 1120 g/ha: 1.12 kg/ha.
Source text: as §5

Test [16] has as its system Morningglory. The test can be described thus: Post-emergence herbicide test. The following applies: Ipomoea, read-out: % plant inhibition (Mogl); for inhibition at 11210 g/ha: 11.21 kg/ha; for inhibition at 1120 g/ha: 1.12 kg/ha.
Source text: as §5

For test [17], the system named is Seedling johnsongrass. Nature of the test: Post-emergence herbicide test. Particulars: Sorghum halepense, read-out: % plant inhibition (Sejg); for inhibition at 11210 g/ha: 11.21 kg/ha; for inhibition at 1120 g/ha: 1.12 kg/ha.
Source text: as §5

Test [18] deals with Velvetleaf. The test can be described thus: Post-emergence herbicide test. Particulars: Abutilon theophrasti, read-out: % plant inhibition (Vele); for inhibition at 11210 g/ha: 11.21 kg/ha; for inhibition at 1120 g/ha: 1.12 kg/ha.
Source text: as §5

Test [19] concerns Wild buckwheat. The test can be described thus: Post-emergence herbicide test. Particulars: Fallopia convolvulus, read-out: % plant inhibition (Wibw); for inhibition at 11210 g/ha: 11.21 kg/ha; for inhibition at 1120 g/ha: 1.12 kg/ha.
Source text: as §5

Test [20] concerns Yellow nutsedge. Nature of the test: Post-emergence herbicide test. Particulars: Cyperus, read-out: % plant inhibition (Yens); for inhibition at 11210 g/ha: 11.21 kg/ha; for inhibition at 1120 g/ha: 1.12 kg/ha.
Source text: as §5

The term inhibition denotes the relative decrease from the control value, in per cent. With `COc1cc(F)c(-c2c(Cl)c(C(F)(F)F)nn2C)cc1F` [Compound 71], the inhibition at 11210 g/ha in [1] is 90%; in [2], 0%; in [3] it was 0%; in [4], 10%; in test [5], 30%; in [6], 30%. Moreover, the inhibition at 11210 g/ha in test [7] is 40%; in test [8] it was 60%; in [9], 70%; in [10], 0%; in [11] it was 0%; in [12] it was 0%. Further, the inhibition at 11210 g/ha was 30% in test [13]; 0% in test [14]; 20% in test [15]; 20% in test [16]; 0% in test [17]; 20% in test [18]. Also, the values for the inhibition at 11210 g/ha in [19] and in [20] were 40% and 0%, respectively.

As to `COc1cc(-c2c(Cl)c(C(F)(F)F)nn2C)c(F)cc1[N+](=O)[O-]` [Compound 72], the inhibition at 11210 g/ha in [1] is 20%; in test [2] it was 60%; in [3] it was 20%; in test [4] it was 20%; in [5], 90%; in test [6] it was 40%. The inhibition at 11210 g/ha in test [7] was determined as 60%; in [8], 90%; in test [9], 90%; in test [10], 0%; in test [11], 10%; in [12], 50%. For the same molecule, the inhibition at 11210 g/ha turned out to be 60% in test [13]; 20% in [14]; 30% in [15]; 30% in test [16]; 10% in [17]; 90% in test [18]. The inhibition at 11210 g/ha in test [19] came out at 90%; in test [20], 10%.

In the case of `COc1cc(-c2c(Cl)c(C(F)(F)F)nn2C)c(F)cc1N` [Compound 73], the inhibition at 11210 g/ha in test [1] stood at 0%; in test [2], 0%; in test [3], 0%; in [4], 0%; in test [5] it was 20%; in [6] it was 0%. In addition, the inhibition at 11210 g/ha in test [7] worked out at 0%; in [8] it was 50%; in test [9] it was 0%; in test [10], 0%; in [11], 0%; in test [12], 0%. Moreover, the inhibition at 11210 g/ha stood at 10% in test [13]; 0% in test [14]; 20% in test [15]; 0% in test [16]; 0% in [17]; 20% in [18]. Besides, the figures for the inhibition at 11210 g/ha in [19] and in test [20] were 20% and 0%, respectively.

Regarding `COc1cc(-c2c(Cl)c(C(F)(F)F)nn2C)c(F)cc1Cl` [Compound 74], the inhibition at 1120 g/ha turned out to be 10% in test [1]; 20% in test [2]; 0% in test [3]; 20% in test [4]; 90% in [5]; 50% in [6]. Further, the inhibition at 1120 g/ha in [7] turned out to be 60%; in test [8], 90%; in test [9] it was 100%; in test [10] it was 0%; in test [11], 0%; in [12], 10%. For the same molecule, the inhibition at 1120 g/ha in test [13] turned out to be 20%; in [14], 10%; in [15], 40%; in test [16], 20%; in test [17], 10%; in [18], 40%. Further, the inhibition at 1120 g/ha came to 90% in test [19] and 10% in test [20].

With `Cn1nc(C(F)(F)F)c(Cl)c1-c1ccc(F)cc1F` [Compound 75], the inhibition at 11210 g/ha was found to be 0% in [1]; 20% in test [2]; 10% in test [3]; 20% in test [4]; 30% in [5]; 90% in [6]. Also, the inhibition at 11210 g/ha in test [7] was determined as 50%; in test [8], 80%; in [9], 50%; in test [10] it was 20%; in test [11] it was 0%; in test [12] it was 0%. Besides, the inhibition at 11210 g/ha came out at 0% in test [13]; 0% in test [14]; 0% in test [15]; 10% in [16]; 0% in test [17]; 0% in test [18]. Also, the inhibition at 11210 g/ha in test [19] is 60%; in [20], 0%.

For the molecule `C#CCOc1cc(-c2c(Cl)c(C(F)(F)F)nn2C)c(F)cc1Cl` [Compound 76], the inhibition at 1120 g/ha in test [1] turned out to be 10%; in [2], 0%; in test [3] it was 20%; in test [4] it was 10%; in test [5], 60%; in test [6], 40%. Moreover, the inhibition at 1120 g/ha in test [7] stood at 0%; in test [8] it was 50%; in [9] it was 100%; in [10] it was 0%; in test [11], 40%; in [12] it was 50%. For the same molecule, the inhibition at 1120 g/ha was determined as 40% in test [13]; 30% in test [14]; 70% in test [15]; 50% in test [16]; 40% in test [17]; 90% in test [18]. In addition, the inhibition at 1120 g/ha in [19] was 100%; in test [20] it was 10%.
